Data: patent US8476264B2, “N-(3-(2-amino-6,6-difluoro-4,4A,5,6,7,7A-hexahydro-cyclopenta[E][1,3]oxazin-4-yl)-phenylamides as BACE1 inhibitors” (Hoffmann-La Roche Inc., priority 2011, dated 2013)

Legend:
[1] = target: T1, recombinant human cathepsin E (Homo sapiens, UniProt P14091); assay: Cathepsin E fluorescent substrate kinetic assay; format: biochemical; conditions: pH 4.5, substrate MR121-[…]
T1 construct: purchased R&D Systems
T1 sequence (P14091 54-396): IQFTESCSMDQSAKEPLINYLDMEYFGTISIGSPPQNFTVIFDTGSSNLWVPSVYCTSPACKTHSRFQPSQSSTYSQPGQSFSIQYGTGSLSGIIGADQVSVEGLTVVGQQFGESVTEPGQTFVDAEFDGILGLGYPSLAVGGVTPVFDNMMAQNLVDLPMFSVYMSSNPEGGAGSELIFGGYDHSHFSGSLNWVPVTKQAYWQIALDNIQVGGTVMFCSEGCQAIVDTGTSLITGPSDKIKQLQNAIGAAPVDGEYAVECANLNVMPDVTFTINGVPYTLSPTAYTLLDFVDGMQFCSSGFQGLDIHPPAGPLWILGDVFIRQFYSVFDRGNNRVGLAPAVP
Excerpt: (§1) Cathepsin D and Cathepsin E Fluorescent Substrate Kinetic Assays
(§2) The MR121 fluorescence assays described below are based on the fact that MR121 forms a non-fluorescent ground state complex with tryptophan. In solution this formation occurs at millimolar concentrations of tryptophan. The mechanism can be used to design a generic biochemical assay for proteases. A substrate peptide is labeled at the N-terminus with tryptophan and at the C-terminus with the fluorophore MR121 (for cathepsin D the 10 amino acid peptide […]-MR121 was used; for cathepsin E, MR121-[…] was used). In absence of protease activity, the substrates remain intact and the MR121 fluorescence is reduced by the high local Trp-concentration. If the substrates are cleaved by the enzymes the MR121 fluorescence is recovered.
(§3) The fluorescent substrate cathepsin D and cathepsin E kinetic assays were performed at room temperature in 384-well microtiter plates (black with clear flat bottom, non binding surface plates from Corning) in a final volume of 51 μl. The test compounds were serially diluted in DMSO (15 concentrations, ⅓ dilution steps) and 1 μl of diluted compounds were mixed for 10 min with 40 μl of cathepsin D (from human liver, Calbiochem) diluted in assay buffer (100 mM sodium acetate, 0.05% BSA, pH 5.5; final concentration: 200 nM) or with 40 μl of recombinant human cathepsin E (R&D Systems) diluted in assay buffer (100 mM sodium acetate, 0.05% BSA, pH 4.5; final concentration: 0.01 nM). After addition of 10 μl of the cathepsin D substrate […]-MR121 diluted in cathepsin D assay buffer (final concentration: 300 nM) or […] cathepsin E substrate MR121-[…] diluted in cathepsin E assay buffer (final concentration: 300 nM), the plates were strongly shaken for 2 minutes. The enzymatic reaction was followed in a plate: vision reader (Perkin Elmer) (excitation wavelength: 630 nm; emission: 695 nm) for at least 30 minutes in a kinetic measurement detecting an increase of MR121 fluorescence during the reaction time. The slope in the linear range of the kinetic was calculated and the IC50 of the test compounds were determined using a four parameter equation for curve fitting.

[2] = target: T2, cathepsin D (from human liver) (Homo sapiens, UniProt P07339); assay: Cathepsin D fluorescent substrate kinetic assay; format: biochemical; conditions: pH 5.5, substrate […]-MR121
T2 construct: cathepsin D (from human liver, Calbiochem) diluted in assay buffer; purchased Calbiochem; host or cells: purified from human liver
Excerpt: as §1, §2, §3

[3] = target: T3, hERG channel (Homo sapiens, UniProt Q12809); assay: PatchXpress hERG inhibition assay; format: cell-based; conditions: @ 1 μM; CHO cells transfected with hERG, automated patch clamp
T3 construct: expressed in transfected cells; host or cells: CHO cells
Procedure: PatchXpress hERG Inhibition Assay
The detailed method to quantify hERG channel inhibition by the automated patch clamp system PatchXpress® 7000A (Molecular Devices, Sunnyvale, Calif.) has been described by Guo et al. (J of Pharmacol & Tox Methods, (2005) 52(1):123-35). In brief, Chinese hamster ovary (CHO) cells transfected with the human ether-a-go-go-related gene (hERG) was cultured in Ex-cell 302 media supplemented with 10% fetal bovine serum, 2 mM glutamine and 0.25 mg/ml geneticin and maintained in a CO2 incubator at 37° C. For patch clamp electrophysiology, the external buffer contained (in mM): 150 NaCl, 10 Hepes, 4 KCl, 1.2 CaCl2, 1 MgCl2, pH 7.4 adjusted with […] and the internal recording solution contained (in mM): 140 KCl, 6 EGTA, 5 Hepes, MgCl2, 5 ATP-Na2, pH 7.2 adjusted with KOH. Once the cell was loaded in the recording chamber and formed a giga ohm seal with the planar glass electrodes (Sealchip™), a whole-cell configuration was achieved by rupturing the cell membrane. The membrane potential was then clamped at −80 mV and the hERG channel activated by a 1-second depolarizing pulse delivered at 0.1 Hz, the hERG current was measured during the 500 ms-repolarizing pulse to −40 mV. After an acceptable hERG current recording was obtained, the cell was first exposed to 0.3% DMSO as the vehicle control, followed by the test article in three ascending, full-log interval concentrations and finally E-4031 at 1 μM (as the positive control) to block the hERG current completely. […] The inhibition of hERG current at each concentration was normalized to that recorded in the vehicle control, and fitted with Hill equation to calculate IC20 and/or IC50.

T2 sequence (P07339 65-162 limits assumed): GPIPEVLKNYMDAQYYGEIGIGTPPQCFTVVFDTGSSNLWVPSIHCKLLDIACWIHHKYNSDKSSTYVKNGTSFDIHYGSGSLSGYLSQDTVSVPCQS
T2 sequence (P07339 169-412 limits assumed): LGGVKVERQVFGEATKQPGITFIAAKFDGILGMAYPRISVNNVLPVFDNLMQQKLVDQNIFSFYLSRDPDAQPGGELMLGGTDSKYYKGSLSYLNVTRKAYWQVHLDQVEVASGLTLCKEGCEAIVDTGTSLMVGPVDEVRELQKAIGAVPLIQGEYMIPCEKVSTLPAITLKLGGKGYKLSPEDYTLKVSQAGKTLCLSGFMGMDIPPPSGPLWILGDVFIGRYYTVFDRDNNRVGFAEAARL
T3 sequence (Q12809 whole entry): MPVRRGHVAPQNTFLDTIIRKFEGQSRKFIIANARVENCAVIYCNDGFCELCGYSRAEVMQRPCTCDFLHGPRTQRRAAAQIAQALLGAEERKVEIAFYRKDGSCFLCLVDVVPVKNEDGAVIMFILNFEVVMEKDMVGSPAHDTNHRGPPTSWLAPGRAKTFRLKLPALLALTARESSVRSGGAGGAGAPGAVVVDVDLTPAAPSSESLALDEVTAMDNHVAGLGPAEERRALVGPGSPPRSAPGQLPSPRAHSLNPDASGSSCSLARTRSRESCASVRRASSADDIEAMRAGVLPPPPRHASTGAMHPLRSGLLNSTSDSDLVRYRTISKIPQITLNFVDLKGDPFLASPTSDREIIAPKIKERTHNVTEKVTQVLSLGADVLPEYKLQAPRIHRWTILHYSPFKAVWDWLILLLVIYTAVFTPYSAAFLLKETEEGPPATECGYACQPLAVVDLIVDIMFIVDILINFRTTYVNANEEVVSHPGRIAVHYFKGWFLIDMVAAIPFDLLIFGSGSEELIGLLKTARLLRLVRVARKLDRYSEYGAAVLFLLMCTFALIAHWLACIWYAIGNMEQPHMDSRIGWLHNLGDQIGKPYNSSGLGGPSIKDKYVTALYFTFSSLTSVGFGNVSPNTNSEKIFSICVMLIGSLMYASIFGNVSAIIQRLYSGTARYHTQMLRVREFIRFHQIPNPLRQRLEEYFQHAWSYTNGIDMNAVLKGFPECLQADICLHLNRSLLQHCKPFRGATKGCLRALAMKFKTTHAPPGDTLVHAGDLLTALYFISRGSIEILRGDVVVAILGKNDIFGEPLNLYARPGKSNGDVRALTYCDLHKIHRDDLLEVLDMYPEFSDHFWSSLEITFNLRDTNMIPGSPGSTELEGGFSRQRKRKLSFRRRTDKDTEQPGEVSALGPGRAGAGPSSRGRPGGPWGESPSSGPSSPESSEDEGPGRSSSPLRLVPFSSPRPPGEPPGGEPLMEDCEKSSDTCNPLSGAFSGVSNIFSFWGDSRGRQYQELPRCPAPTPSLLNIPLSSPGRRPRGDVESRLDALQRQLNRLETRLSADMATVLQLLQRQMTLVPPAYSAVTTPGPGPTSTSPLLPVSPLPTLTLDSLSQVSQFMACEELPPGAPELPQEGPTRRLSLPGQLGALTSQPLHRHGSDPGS

SMILES | IC50 [1] | IC50 [2] | hERG inhibition [3]
COc1cnc(C(=O)Nc2ccc(F)c([C@@]3(C(F)F)N=C(N)O[C@@H]4CC(F)(F)C[C@@H]43)c2)cn1 [Example 42, 5-Methoxy-pyrazine-2-carboxylic acid [(S)-3-((1R,2R)-2-amino-4-difluoromethyl-6,6-difluoro-4,4a,5,6,7,7a-hexahydro-cyclopenta[e][1,3]oxazin-4-yl)-4-fluoro-phenyl]-amide] | > 200 µM | > 150 µM | B (less than 15% inhibition @ 1 μM)
N#Cc1ccc(C(=O)Nc2ccc(F)c([C@@]3(CF)N=C(N)O[C@@H]4CC(F)(F)C[C@@H]43)c2)nc1 [Example 3, 5-Cyano-pyridine-2-carboxylic acid [(S)-3-((1R,2R)-2-amino-6,6-difluoro-4-fluoromethyl-4,4a,5,6,7,7a-hexahydro-cyclopenta[e][1,3]oxazin-4-yl)-4-fluoro-phenyl]-amide] | > 200 µM | > 200 µM | B (less than 15% inhibition @ 1 μM)
NC1=N[C@](CF)(c2cc(NC(=O)c3cnc(C(F)F)cn3)ccc2F)[C@H]2CC(F)(F)C[C@H]2O1 [Example 24, 5-Difluoromethyl-pyrazine-2-carboxylic acid [(S)-3-((1R,2R)-2-amino-6,6-difluoro-4-fluoromethyl-4,4a,5,6,7,7a-hexahydro-cyclopenta[e][1,3]oxazin-4-yl)-4-fluoro-phenyl]-amide] | > 200 µM | > 200 µM | B (less than 15% inhibition @ 1 μM)

Further lines, with some results ahead:

IC50 [1] | IC50 [2] | SMILES | hERG inhibition [3]
> 200 µM | > 200 µM | N#Cc1ccc(C(=O)Nc2ccc(F)c([C@@]3(C(F)F)N=C(N)O[C@@H]4CC(F)(F)C[C@@H]43)c2)nc1 [Example 36, 5-Cyano-pyridine-2-carboxylic acid [(S)-3-((1R,2R)-2-amino-4-difluoromethyl-6,6-difluoro-4,4a,5,6,7,7a-hexahydro-cyclopenta[e][1,3]oxazin-4-yl)-4-fluoro-phenyl]-amide] | B (less than 15% inhibition @ 1 μM)
149 µM | 93 µM | NC1=N[C@](CF)(c2cc(NC(=O)c3ccc(F)cn3)ccc2F)[C@H]2CC(F)(F)C[C@H]2O1 [Example 7, 5-Fluoro-pyridine-2-carboxylic acid [(S)-3-((1R,2R)-2-amino-6,6-difluoro-4-fluoromethyl-4,4a,5,6,7,7a-hexahydro-cyclopenta[e][1,3]oxazin-4-yl)-4-fluoro-phenyl]-amide] | A (less than 20% inhibition @ 1 μM)
